Data published in patent US20150105252A1, “SUBSTITUTED PYRAZOLES AS HERBICIDES” (E I DU PONT DE NEMOURS AND COMPANY, priority 2013, published 2015).

Tests used:
ragweed = assay: Test C postemergence; type: in vivo, Ambrosia elation; conditions: for Plant response rating (scale of 0 to 100 where 0 is no effect and 100 is complete control), Ragweed: Postemergence, 31 g ai/ha, visually evaluated after 13 to 15 days; for Ragweed plant response rating / Plant response rating, Ragweed: postemergence; for Ragweed plant response rating: 62 g ai/ha, scale 0 to 100
From the text: (§1) Seeds of plant species selected from blackgrass (Alopecurus myosuroides), ryegrass, Italian (Italian ryegrass, Lolium multiflorum), wheat (winter wheat, Triticum aestivum), galium (catchweed bedstraw, Galium aparine), corn (Zea mays), crabgrass, large (large crabgrass, Digitaria sanguinalis), foxtail, giant (giant foxtail, Setaria faberii), johnsongrass (Sorghum halepense), lambsquarters (Chenopodium album), morningglory (Ipomoea coccinea), nutsedge, yellow (yellow nutsedge, Cyperus esculentus), pigweed (redroot pigweed, Amaranthus retroflexus), ragweed (common ragweed, Ambrosia elation), soybean (Glycine max), barnyardgrass (Echinochloa crus-galli), oilseed rape (Brassica napus), waterhemp (common waterhemp, Amaranthus rudis), oat, wild (wild oat, Avena fatua), kochia (Kochia scoparia), Surinam grass (Brachiaria decumbens), foxtail, green (green foxtail, Setaria viridis), goosegrass (Eleusine indica), bromegrass, downy (downy bromegrass, Bromus tectorum), nightshade (eastern black nightshade, Solanum ptycanthum), cocklebur (common cocklebur, Xanthium strumarium), cupgrass, woolly (woolly cupgrass, Eriochloa villosa), bermudagrass (Cynodon dactylon), sunflower, (common oilseed sunflower, Helianthus annuus), Russian thistle (Salsola kali), and velvetleaf (Abutilon theophrasti) were planted into a blend of loam soil and sand and treated preemergence with test chemicals formulated in a non-phytotoxic solvent mixture which included a surfactant.
(§2) At the same time, plants selected from these crop and weed species and also chickweed (common chickweed, Stellaria media), canarygrass (littleseed canarygrass, Phalaris minor), and deadnettle (henbit deadnettle, Lamium amplexicaule), were planted in pots containing Redi-Earth® planting medium (Scotts Company, 14111 Scottslawn Road, Marysville, Ohio 43041) comprising spaghnum peat moss, vermiculite, wetting agent and starter nutrients and treated with postemergence applications of test chemicals formulated in the same manner. Plants ranged in height from 2 to 18 cm (1- to 4-leaf stage) for postemergence treatments. Treated plants and controls were maintained in a greenhouse for 13 to 15 days, after which time all species were compared to controls and visually evaluated. Plant response ratings, summarized in Table C, are based on a scale of 0 to 100 where 0 is no effect and 100 is complete control. A dash (-) response means no test result.

corn = assay: Test C postemergence; type: in vivo, Zea mays; conditions: for Plant response rating (scale of 0 to 100 where 0 is no effect and 100 is complete control), Corn: Postemergence, 31 g ai/ha, visually evaluated after 13 to 15 days; for Corn plant response rating / Plant response rating, Corn: postemergence; for Corn plant response rating: 62 g ai/ha, scale 0 to 100
From the text: as §1, §2

barnyardgrass [1] = assay: Test A preemergence; type: in vivo, Echinochloa crus-galli; conditions: preemergence; for Barnyardgrass plant response rating (0 to 100 scale, 0 is no effect, 100 is complete control): visual injury approx. 10 days after treatment
Procedure, shortened: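 Visual injury ratings, 0 = no effect to 100 = complete control, taken about 10 days after treatment against untreated controls. Test chemicals, in a non-phytotoxic surfactant-containing solvent, were sprayed onto soil preemergence or onto one- to two-leaf plants (2–10 cm) postemergence, in loam–sand soil under greenhouse conditions.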

ducksalad = assay: Test C flooded paddy test; type: in vivo, Heteranthera limosa; conditions: Flood
Procedure, shortened: (§3)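 Flooded 3 cm over soil; compound into paddy water; depth kept constant. Greenhouse 13–15 d.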

rice = assay: Test C flooded paddy test; type: in vivo, Oryza sativa; conditions: Flood
Procedure, shortened: as §3

barnyardgrass [2] = assay: Test C flooded paddy test; type: in vivo, Echinochloa crus-galli; conditions: Flood
Procedure, shortened: as §3

sedge, umbrella = assay: Test C flooded paddy test; type: in vivo, Cyperus difformis; conditions: Flood
Procedure, shortened: as §3

[3] = 250 g ai/ha, scale 0 to 100 (0 no effect, 100 complete control)
[4] = 125 g ai/ha, scale 0 to 100, 0 no effect, 100 complete control
[5] = 125 g ai/ha, visual injury, 0 to 100 scale, approx. 10 days
[6] = 500 g ai/ha, visual injury after approx. 10 days, 0 to 100 scale (0 no effect, 100 complete control)
[7] = 31 g ai/ha, scale 0 to 100 (0 no effect, 100 complete control)
[8] = 62 g ai/ha, scale 0 to 100 (0 no effect, 100 complete control)
[9] = 125 g ai/ha, scale 0 to 100 (0 no effect, 100 complete control)

| SMILES | Barnyardgrass plant response rating (barnyardgrass [1]; [5]) | Barnyardgrass plant response rating (barnyardgrass [1]; [6]) | Plant response rating, Ducksalad (ducksalad; [7]) | Plant response rating, Ducksalad (ducksalad; [8]) | Plant response rating, Ducksalad (ducksalad; 250 g ai/ha, scale 0 to 100) | Plant response rating, Rice (rice; [7]) | Plant response rating, Rice (rice; [8]) | Plant response rating, Rice (rice; 250 g ai/ha, scale 0 to 100) | Barnyardgrass plant response rating (0 to 100 scale, 0 is no effect, 100 is complete control) (barnyardgrass [1]; 125 g ai/ha) | Plant response rating, Barnyardgrass (barnyardgrass [2]; [7]) | Plant response rating, Barnyardgrass (barnyardgrass [2]; [8]) | Plant response rating, Barnyardgrass (barnyardgrass [2]; 250 g ai/ha, scale 0 to 100) | Plant response rating, Sedge, Umbrella (sedge, umbrella; [7]) | Plant response rating, Sedge, Umbrella (sedge, umbrella; [8]) | Plant response rating, Sedge, Umbrella (sedge, umbrella; 250 g ai/ha, scale 0 to 100) | further results |
| --- | --- | --- | --- | --- | --- | --- | --- | --- | --- | --- | --- | --- | --- | --- | --- | --- |
| CCc1cc(C(=O)NOC(C)C)nn1Cc1ccnc(OC(F)F)c1 [Compound 126] | 90 | 100 | – | – | – | – | – | – | – | – | – | – | – | – | – | Plant response rating (scale of 0 to 100 where 0 is no effect and 100 is complete control), Ragweed (ragweed): 30; Ragweed plant response rating (ragweed): 35; Plant response rating, Ragweed (ragweed; [3]): 80; Plant response rating, Ragweed (ragweed; [4]): 55; Plant response rating (scale of 0 to 100 where 0 is no effect and 100 is complete control), Corn (corn): 5; Corn plant response rating (corn): 10; Plant response rating, Corn (corn; [3]): 55; Plant response rating, Corn (corn; [4]): 35 |
| CCONC(=O)c1cc(CC)n(Cc2ccnc(OC(F)F)c2)n1 [Compound 131] | 100 | 100 | – | – | – | – | – | – | – | – | – | – | – | – | – | Plant response rating (scale of 0 to 100 where 0 is no effect and 100 is complete control), Ragweed (ragweed): 5; Ragweed plant response rating (ragweed): 30; Plant response rating, Ragweed (ragweed; [3]): 85; Plant response rating, Ragweed (ragweed; [4]): 60; Plant response rating (scale of 0 to 100 where 0 is no effect and 100 is complete control), Corn (corn): 5; Corn plant response rating (corn): 5; Plant response rating, Corn (corn; [3]): 50; Plant response rating, Corn (corn; [4]): 5 |
| CCOc1cc(C(=O)NCC(F)(F)F)nn1Cc1cc(C(F)(F)F)nn1C [Compound 140] | 90 | 100 | – | – | – | – | – | – | – | – | – | – | – | – | – | – |
| O=C(NCC(F)(F)F)c1cc(CCF)n(Cc2ccnc(C(F)(F)F)c2)n1 [Compound 175] | 100 | 100 | – | – | – | – | – | – | – | – | – | – | – | – | – | – |
| O=C(NC1CC1)c1cc(CCF)n(Cc2ccnc(C(F)(F)F)c2)n1 [Compound 176] | – | 100 | 0 | 70 | 100 | 0 | 0 | 20 | 80 | 0 | 0 | 10 | 0 | 40 | 100 | Plant response rating, Ducksalad (ducksalad; 125 g ai/ha, scale 0 to 100): 95; Plant response rating, Rice (rice; 125 g ai/ha, scale 0 to 100): 20; Plant response rating, Barnyardgrass (barnyardgrass [2]; 125 g ai/ha, scale 0 to 100): 20; Plant response rating, Sedge, Umbrella (sedge, umbrella; 125 g ai/ha, scale 0 to 100): 95 |
| CCNC(=O)c1cc(CCF)n(Cc2ccnc(C(F)(F)F)c2)n1 [Compound 178] | – | 100 | 0 | 30 | 90 | 0 | 0 | 20 | 80 | 0 | 0 | 20 | 0 | 0 | 80 | Plant response rating, Ducksalad (ducksalad; [9]): 60; Plant response rating, Rice (rice; [9]): 0; Plant response rating, Barnyardgrass (barnyardgrass [2]; [9]): 0; Plant response rating, Sedge, Umbrella (sedge, umbrella; [9]): 40 |
| CCCc1cc(C(=O)NOC(C)C)nn1Cc1cc(C(F)(F)F)nn1C [Compound 203] | – | 100 | 0 | 0 | 80 | 0 | 0 | 0 | 80 | 0 | 0 | 0 | 40 | 40 | 85 | Plant response rating, Ducksalad (ducksalad; [9]): 20; Plant response rating, Rice (rice; [9]): 0; Plant response rating, Barnyardgrass (barnyardgrass [2]; [9]): 0; Plant response rating, Sedge, Umbrella (sedge, umbrella; [9]): 70 |
